Assay results taken from PubChem BioAssay (NCI).
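Interpolation was linear, between the two tested concentrations surrounding the appropriate level; five concentrations were tested over 48 hours in 96-well plates. TGI is the concentration that stops growth completely.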

Legend:
Experiment in all cases: inhibition of tumour cell growth, NCI panel, 48 h
[1] = tested on: 786-0 renal
[2] = tested on: A498 renal
[3] = tested on: A549 NSCLC
[4] = tested on: ACHN renal
[5] = tested on: CAKI-1 renal
[6] = tested on: CCRF-CEM leukemia
[7] = tested on: COLO 205 colon
[8] = tested on: DU-145 prostate
[9] = tested on: EKVX NSCLC
[10] = tested on: HCC-2998 colon
[11] = tested on: HCT-116 colon
[12] = tested on: HCT-15 colon
[13] = tested on: HL-60(TB) leukemia
[14] = tested on: HOP-62 NSCLC
[15] = tested on: HS 578T breast
[16] = tested on: HT29 colon
[17] = tested on: IGROV1 ovarian
[18] = tested on: K-562 leukemia
[19] = tested on: KM12 colon
[20] = tested on: LOX IMVI melanoma
[21] = tested on: M14 melanoma
[22] = tested on: MALME-3M melanoma
[23] = tested on: MCF7 breast
[24] = tested on: MDA-MB-231 breast
[25] = tested on: MDA-MB-435
[26] = tested on: MDA-N
[27] = tested on: NCI-H226 lung
[28] = tested on: NCI-H23 lung
[29] = tested on: NCI-H460 lung
[30] = tested on: NCI-H522 lung
[31] = tested on: NCI/ADR-RES ovarian
[32] = tested on: OVCAR-3 ovarian
[33] = tested on: OVCAR-4 ovarian
[34] = tested on: OVCAR-5 ovarian
[35] = tested on: OVCAR-8 ovarian
[36] = tested on: PC-3 prostate
[37] = tested on: RPMI-8226 leukemia
[38] = tested on: RXF 393 renal
[39] = tested on: SF-268 CNS
[40] = tested on: SF-295 CNS
[41] = tested on: SF-539 CNS
[42] = tested on: SK-MEL-2 melanoma
[43] = tested on: SK-MEL-28 melanoma
[44] = tested on: SK-MEL-5 melanoma
[45] = tested on: SK-OV-3 ovarian
[46] = tested on: SN12C renal
[47] = tested on: SNB-19 CNS
[48] = tested on: SNB-75 CNS
[49] = tested on: SR leukemia
[50] = tested on: SW-620 colon
[51] = tested on: T-47D breast
[52] = tested on: TK-10 renal
[53] = tested on: U251 CNS
[54] = tested on: UACC-257 melanoma
[55] = tested on: UACC-62 melanoma
[56] = tested on: MOLT-4 leukemia
[57] = tested on: UO-31 renal

Measured: TGI

COc1ccccc1-n1cnc2c1NC(C)(C)N=C2C(N)=O
> 100 µM: [1] | [2] | [3] | [4] | [5] | [6] | [7] | [8] | [9] | [10] | [11] | [12] | [13] | [14] | [15] | [16] | [17] | [18] | [19] | [20] | [21] | [22] | [23] | [24] | [25] | [26] | [27] | [28] | [29] | [30] | [31] | [32] | [33] | [34] | [35] | [36] | [37] | [38] | [39] | [40] | [41] | [42] | [43] | [44] | [45] | [46] | [47] | [48] | [49] | [50] | [51] | [52] | [53] | [54] | [55]

COc1cccc(N/C(C)=C2/CCOC2=O)c1
> 10 µM: [2] | [3] | [4] | [5] | [6] | [7] | [8] | [9] | [10] | [11] | [12] | [13] | [14] | [15] | [16] | [17] | [19] | [20] | [21] | [22] | [23] | [24] | [25] | [26] | [56] | [27] | [28] | [29] | [30] | [31] | [32] | [33] | [34] | [35] | [36] | [37] | [38] | [39] | [40] | [41] | [42] | [43] | [44] | [45] | [46] | [47] | [48] | [49] | [50] | [51] | [52] | [53] | [55] | [57]
